# Assay results reported in ChEMBL document CHEMBL1137482, “Carbonic anhydrase inhibitors: cloning, characterization, and inhibition studies of the cytosolic isozyme III with sulfonamides” (Bioorg Med Chem, 2007).
# Biological target: Carbonic anhydrase 3 (Homo sapiens, UniProt P07451)
# Sequence (P07451 whole entry): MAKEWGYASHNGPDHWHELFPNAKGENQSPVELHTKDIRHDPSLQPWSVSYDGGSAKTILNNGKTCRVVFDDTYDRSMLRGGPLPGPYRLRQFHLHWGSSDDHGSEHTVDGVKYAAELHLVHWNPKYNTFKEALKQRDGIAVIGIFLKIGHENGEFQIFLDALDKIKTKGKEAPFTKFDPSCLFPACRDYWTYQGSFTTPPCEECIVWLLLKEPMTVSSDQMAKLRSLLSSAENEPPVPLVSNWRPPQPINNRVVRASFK
row,Ki,SMILES
1,684 µM,NS(=O)(=O)c1cc(Cl)c(Cl)c(S(N)(=O)=O)c1 [DICHLORPHENAMIDE]
2,988 µM,Nc1ccc(S(N)(=O)=O)cc1 [SULFANILAMIDE]
3,11.3 µM,NS(=O)(=O)c1ccc(C(=O)O)cc1 [CARZENIDE]
4,887 µM,Nc1ccccc1S(N)(=O)=O
5,7.9 µM,Cc1ccc(S(N)(=O)=O)cc1 [P-TOLUENESULFONAMIDE]
6,10.4 µM,NS(=O)(=O)c1ccc(S(=O)(=O)Nc2cccc3c(Cl)c[nH]c23)cc1
7,114 µM,Nc1ccc(S(=O)(=O)NCc2ccc(S(N)(=O)=O)cc2)cc1
8,18.1 µM,Nc1ccc(S(=O)(=O)Nc2nnc(S(N)(=O)=O)s2)cc1
9,710 µM,Nc1ccc(S(N)(=O)=O)cc1Cl
10,140 µM,Nc1ccc(S(=O)(=O)NCCc2ccc(S(N)(=O)=O)cc2)cc1
11,2070 µM,Nc1ccc(S(N)(=O)=O)cc1F
12,681 µM,NCc1ccc(S(N)(=O)=O)cc1 [MAFENIDE]

# Continued, molecule first:
row,SMILES,Ki
1,CC1(C)O[C@@H]2[C@@H](CO[C@@]3(COS(N)(=O)=O)OC(C)(C)O[C@@H]23)O1 [TOPIRAMATE],780 µM
2,CCN1CCCC1CNC(=O)c1cc(S(N)(=O)=O)ccc1OC (configuration not stated) [SULPIRIDE],10.6 µM
3,NS(=O)(=O)c1ccc(CCO)cc1,1190 µM
4,O=C1NS(=O)(=O)c2ccccc21 [SACCHARIN],1000 µM
5,Cc1ccc(-c2cc(C(F)(F)F)nn2-c2ccc(S(N)(=O)=O)cc2)cc1 [CELECOXIB],154 µM
6,Nc1nccc(Nc2ccc(S(N)(=O)=O)cc2)n1,2630 µM
7,"CCNC1CN(CCCOC)S(=O)(=O)c2sc(S(N)(=O)=O)cc21 (single isomer, unassigned) [BRINZOLAMIDE]",110 µM
8,Cn1nc(S(N)(=O)=O)sc1=N,198 µM
9,NS(=O)(=O)c1ccc(CO)cc1,4890 µM
10,Nc1nnc(S(N)(=O)=O)s1,148 µM
